The text below walks through data of patent US20250163057A1, “DCN-1 MODULATING COMPOUNDS AND METHODS OF USE THEREOF” (Cellarity, Inc., priority 2023, published 2025).

Structures can show the parent of a compound that is named as a salt. Where two headings read alike, the source gives them in different places.

In general, IC50 refers to the concentration that gives 50% inhibition.

Experiment [1] relates to Cullin-3 (CUL3) neddylation. The experiment is described as follows: AlphaLISA assay for Cullin-3 (CUL3) neddylation in TF 1 cells. Type of experiment: cell-based. The conditions noted are these: Homo sapiens, TF-1, 3 h, 3 hours treatment. Summed up: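 TF 1 cells in unsupplemented IMDM treated with compound concentrations for 3 h, then lysed. CUL3 neddylation detected by AlphaLISA (biotinylated anti-NEDD8, anti-CUL3 acceptor beads overnight, streptavidin donor beads 1 h); normalized to vehicle (0%) and 1 μM DI-1548 (100%), IC50 from Hill fits.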

The target in experiment [2] is DCN1 (DCUND1) protein PONY domain (Homo sapiens (Human), UniProt Q96GG9). The experiment is described as follows: TR-FRET assay, DCN1 binding with FAM-labeled probe. In short, it runs like this: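 TR-FRET ratio (Tb-DCN1 to FAM-probe) read at 1, 5 and 24 hrs after compound addition. Protein: recombinant PONY domain from E. coli, biotinylated and coupled to streptavidin terbium. Either 5 nM DCN1 with 20 nM FAM-probe, or 0.31 nM DCN1 with 100 nM FAM-labelled plus 800 nM unlabelled probe.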
Chain of DCN1 (DCUND1) protein PONY domain (Q96GG9 60-248): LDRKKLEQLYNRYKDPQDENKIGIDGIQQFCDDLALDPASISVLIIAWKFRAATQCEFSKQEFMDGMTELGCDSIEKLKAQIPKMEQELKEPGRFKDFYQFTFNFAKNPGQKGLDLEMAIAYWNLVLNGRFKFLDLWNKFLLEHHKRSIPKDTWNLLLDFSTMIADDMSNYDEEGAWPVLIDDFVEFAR
(TR-FRET usually uses a lanthanide donor and a delayed reading to cut background.)

Where [3] appears, read: 24 hr after treatment with compound, read-out: TR FRET IC50 24 hr.
Setting [4] is: TR FRET IC50 1 hr (nM), 1 hr after treatment with compound.
Setting [5] is: read-out: TR FRET IC50 1 hr, 1 hr after treatment with compound.

With `CCN1C(=O)[C@@H](NC(=O)c2cccc(C(F)(F)F)c2)[C@@H](C2CC2)c2c(C(=O)N3C[C@@H](NC)C[C@H]3C#N)nn(C3CCOCC3)c21` [Compound I-503, N-((4S,5S)-3-((2S,4S)-2-cyano-4-(methylamino)pyrrolidine-1-carbonyl)-4-cyclopropyl-7-ethyl-6-oxo-1-(tetrahydro-2H-pyran-4-yl)-4,5,6,7-tetrahydro-1H-pyrazolo[3,4-b]pyridin-5-yl)-3-(trifluoromethyl)benzamide], the figures for the concentration for half-maximal inhibition (IC50) in experiment [1], in experiment [2] (setting [3]) and in experiment [2] (setting [4]) were more than 1 µM, 200 to 1000 nM and 1000 to 3000 nM, respectively.
The matching figures for `CCN1C(=O)[C@H](NC(=O)c2cccc(C(F)(F)F)c2)[C@H](c2ccc(F)cc2)c2c(C(=O)N3CCC[C@H]3C#N)nn(-c3ccccc3)c21` [Compound I-611]: more than 1 µM, 1000 to 3000 nM and 1000 to 3000 nM.
For `CCN1C(=O)[C@@H](NC(=O)c2cccc(C(F)(F)F)c2)[C@@H](c2ccc(F)cc2)c2c(NC(=O)C3=CCCN(C)C3)nn(-c3ccccc3)c21` (racemic) [Compound I-488], the IC50 was not above 0.1 µM in experiment [1], not above 200 nM in experiment [2] (setting [3]) and 200 to 1000 nM in experiment [2] (setting [4]).
As to `CCN1C(=O)[C@@H](NC(=O)c2cccc(C(F)(F)F)c2)[C@@H](C2CCCC2)c2c(C(=O)N3CCC[C@H]3C#N)nn(C3CCOCC3)c21` [Compound I-469], the IC50 in experiment [1] was not above 0.1 µM; in experiment [2] (setting [3]), not above 200 nM; in experiment [2] (setting [4]), 1000 to 3000 nM.
In the same order, the values of `CCN1C(=O)[C@@H](NC(=O)C23CC(C(F)F)(C2)C3)[C@@H](C2CC2)c2c(C(=O)N3[C@H](C#N)C[C@H]4C[C@H]43)nn(C3CCOCC3)c21` [Compound I-662] are more than 1 µM, 1000 to 3000 nM and 1000 to 3000 nM.
As to `CN1C(=O)[C@@H](NC(=O)c2cccc(C(F)(F)F)c2)[C@@H](C2CC2)c2c(C(=O)N3[C@H](C#N)C[C@H]4C[C@H]43)nn(C3CCOCC3)c21` (relative stereo) [Compound I-650, N-((4S*,5S*)-3-((1R,3S,5R)-3-cyano-2-azabicyclo[3.1.0]hexane-2-carbonyl)-4-cyclopropyl-7-methyl-6-oxo-1-(tetrahydro-2H-pyran-4-yl)-4,5,6,7-tetrahydro-1H-pyrazolo[3,4-b]pyridin-5-yl)-3-(trifluoromethyl)benzamide], the 50% inhibitory concentration (IC50) is not above 0.1 µM in experiment [1], not above 200 nM in experiment [2] (setting [3]) and not above 200 nM in experiment [2] (setting [4]).
For `CCN1C(=O)[C@H](NC(=O)c2cccc(C(F)(F)F)c2)[C@H](c2ccc(F)cc2)c2c(C(=O)N3CCC[C@H]3C#N)nn(-c3cccc(OCCN4CCC5(CC4)COC5)c3)c21` [Compound I-616], the IC50 in experiment [1] was more than 1 µM; in experiment [2] (setting [3]), 1000 to 3000 nM; in experiment [2] (setting [4]), 1000 to 3000 nM.
As to `CCN1C(=O)[C@H](NC(=O)c2cccc(C(F)(F)F)c2)[C@H](c2ccc(F)cc2)c2c(C(=O)N[C@@H](C)C#N)nn(-c3ccccc3)c21` [Compound I-255, (4R,5R)—N—((S)-1-cyanoethyl)-7-ethyl-4-(4-fluorophenyl)-6-oxo-1-phenyl-5-(3-(trifluoromethyl)benzamido)-4,5,6,7-tetrahydro-1H-pyrazolo[3,4-b]pyridine-3-carboxamide], the IC50 in experiment [1] is more than 1 µM; in experiment [2] (setting [3]), 1000 to 3000 nM; in experiment [2] (setting [4]), 1000 to 3000 nM.
In the case of `CCN1C(=O)[C@@H](NC(=O)c2cccc(C(F)(F)F)c2)[C@@H](c2ccc(F)cc2)c2c(C(=O)N3[C@H](C#N)C[C@H]4C[C@H]43)nn([C@H]3CCOC3)c21` (relative stereo) [Compound I-630, N-((4S*,5S*)-3-((1R,3S,5R)-3-cyano-2-azabicyclo[3.1.0]hexane-2-carbonyl)-7-ethyl-4-(4-fluorophenyl)-6-oxo-1-((S**)-tetrahydrofuran-3-yl)-4,5,6,7-tetrahydro-1H-pyrazolo[3,4-b]pyridin-5-yl)-3-(trifluoromethyl)benzamide], the results for the IC50 in experiment [1], in experiment [2] (setting [3]) and in experiment [2] (setting [4]) were not above 0.1 µM, not above 200 nM and not above 200 nM, respectively.
As for `CCN1C(=O)[C@@H](NC(=O)CCc2ccccc2)[C@@H](C2CC2)c2c(C(=O)N3[C@H](C#N)C[C@H]4C[C@H]43)nn(C3CCOCC3)c21` [Compound I-476], the IC50 was more than 1 µM in experiment [1], 1000 to 3000 nM in experiment [2] (setting [3]) and 1000 to 3000 nM in experiment [2] (setting [4]).
Consider `CCN1C(=O)[C@H](NC(=O)c2cccc(C(F)(F)F)c2)[C@H](c2ccc(F)cc2)c2c(C(=O)N(CC#N)C3COC3)nn(-c3ccccc3)c21` (racemic) [Compound I-603], for which the half-inhibitory concentration (IC50) in experiment [1] was 0.1 to 1 µM; in experiment [2] (setting [3]) it was not above 200 nM; in experiment [2] (setting [4]), 1000 to 3000 nM.
For `CCN1C(=O)[C@@H](NC(=O)N2CCC[C@H](C(F)(F)F)C2)[C@@H](c2ccc(F)cc2)c2c(C(=O)N3CCC[C@H]3C#N)nn(-c3ccccc3)c21` (single isomer, unassigned) [Compound I-501], the results for the IC50 in experiment [1], in experiment [2] (setting [3]) and in experiment [2] (setting [4]) were more than 1 µM, 200 to 1000 nM and 1000 to 3000 nM, respectively.
`CCN1C(=O)[C@H](NC(=O)c2cccc(C(F)(F)F)c2)[C@H](c2ccc(F)cc2)c2c(C(=O)N3CCC[C@H]3C#N)nn(C3CCOCC3)c21` [Compound I-401]: the values for the IC50 in experiment [1], in experiment [2] (setting [3]) and in experiment [2] (setting [4]) were more than 1 µM, 1000 to 3000 nM and 1000 to 3000 nM, respectively.
For `CCN1C(=O)[C@H](NC(=O)c2cccc(C(F)(F)F)c2)[C@H](c2ccc(F)cc2)c2c([C@H](C)NC#N)nn(-c3ccccc3)c21` [Compound I-410], the IC50 lay within 0.1 to 1 µM in experiment [1], 200 to 1000 nM in experiment [2] (setting [3]) and 1000 to 3000 nM in experiment [2] (setting [4]).
For `CCN1C(=O)[C@@H](NC(=O)c2cccc(C(F)(F)F)c2)[C@@H](c2ccc(F)cc2)c2c(C(=O)N3C[C@H](NC)C[C@H]3C#N)nn(C3CCOCC3)c21` (mixture of isomers) [Compound I-509, N-((4S,5S)-3-((2S,4R)-2-cyano-4-(methylamino)pyrrolidine-1-carbonyl)-7-ethyl-4-(4-fluorophenyl)-6-oxo-1-(tetrahydro-2H-pyran-4-yl)-4,5,6,7-tetrahydro-1H-pyrazolo[3,4-b]pyridin-5-yl)-3-(trifluoromethyl)benzamide], the IC50 in experiment [1] is not above 0.1 µM; in experiment [2] (setting [3]), not above 200 nM; in experiment [2] (setting [5]), not above 200 nM.
For the molecule `CCN1C(=O)[C@H](NC(=O)c2cccc(C(F)(F)F)c2)[C@@H](c2ccc(F)cc2)c2c([C@@H](C)N(C#N)CCCN(C)C)nn(-c3ccccc3)c21` [Compound I-609, N-((4S,5R)-3-((R)-1-(N-(3-(dimethylamino)propyl)cyanamido)ethyl)-7-ethyl-4-(4-fluorophenyl)-6-oxo-1-phenyl-4,5,6,7-tetrahydro-1H-pyrazolo[3,4-b]pyridin-5-yl)-3-(trifluoromethyl)benzamide formate], the IC50 was more than 1 µM in experiment [1], not above 200 nM in experiment [2] (setting [3]) and not above 200 nM in experiment [2] (setting [5]).
For `CCN1C(=O)[C@@H](NC(=O)c2ccc3c(c2)COC3)[C@@H](C2CC2)c2c(C(=O)N3[C@H](C#N)C[C@H]4C[C@H]43)nn(C3CCOCC3)c21` [Compound I-600], the figures for the IC50 in experiment [1], in experiment [2] (setting [3]) and in experiment [2] (setting [4]) were not above 0.1 µM, not above 200 nM and 200 to 1000 nM, respectively.
For the molecule `CCN1C(=O)[C@@H](NC(=O)N2CCC[C@@H](C(F)(F)F)C2)C(c2ccc(F)cc2)c2c(C(=O)N3CCC[C@H]3C#N)nn(-c3ccccc3)c21` (single isomer, unassigned) [Compound I-464], the figures for the IC50 in experiment [1], in experiment [2] (setting [3]) and in experiment [2] (setting [4]) were more than 1 µM, 1000 to 3000 nM and 1000 to 3000 nM, respectively.
Consider `CCN1C(=O)[C@@H](NC(=O)c2cccc(C(F)(F)F)c2)[C@@H](c2ccc(F)cc2)c2c([C@H](CCCO)NC#N)nn(-c3ccccc3)c21` [Compound I-489], for which the figures for the half-inhibitory concentration (IC50) in experiment [1], in experiment [2] (setting [3]) and in experiment [2] (setting [4]) were not above 0.1 µM, not above 200 nM and 200 to 1000 nM, respectively.
With `CCN1C(=O)[C@@H](NC(=O)c2ccc3scnc3c2)[C@@H](C2CC2)c2c(C(=O)N3[C@H](C#N)C[C@H]4C[C@H]43)nn(C3CCOCC3)c21` [Compound I-483], the IC50 in experiment [1] is more than 1 µM; in experiment [2] (setting [3]), 200 to 1000 nM; in experiment [2] (setting [4]) it was 1000 to 3000 nM.
In the case of `CCN1C(=O)[C@@H](NC(=O)c2cccc(C(F)(F)F)c2)[C@@H](c2ccc(F)cc2)c2c(CN(C#N)CCCN3CCC4(CC3)COC4)nn(-c3ccccc3)c21` [Compound I-579], the IC50 in experiment [1] is not above 0.1 µM; in experiment [2] (setting [3]), not above 200 nM; in experiment [2] (setting [5]) it was not above 200 nM.
For the molecule `CCN1C(=O)[C@@H](NC(=O)c2cccc(C(F)(F)F)c2)[C@@H](c2ccc(F)cc2)c2c([C@H](C)NC#N)nn(-c3ccccc3)c21` [Compound I-530], the figures for the IC50 in experiment [1], in experiment [2] (setting [3]) and in experiment [2] (setting [4]) were not above 0.1 µM, not above 200 nM and 200 to 1000 nM, respectively.
For `C=C(CN1CCC1)C(=O)NCc1nn(-c2ccccc2)c2c1[C@H](C1CC1)[C@H](NC(=O)c1cccc(C(F)(F)F)c1)C(=O)N2CC` (stereo in doubt) [Compound I-462], the values for the IC50 in experiment [1], in experiment [2] (setting [3]) and in experiment [2] (setting [5]) were not above 0.1 µM, not above 200 nM and not above 200 nM, respectively.
`CCN1C(=O)[C@H](NC(=O)c2cccc(C(F)(F)F)c2)[C@H](C)c2c(C(=O)N3[C@H](C#N)C[C@H]4C[C@H]43)nn(C3CCOCC3)c21` [Compound I-599]: the IC50 lay within 0.1 to 1 µM in experiment [1], 1000 to 3000 nM in experiment [2] (setting [3]) and 1000 to 3000 nM in experiment [2] (setting [4]).
With `CCCn1nc(C(=O)N2CCC[C@H]2C#N)c2c1N(CC)C(=O)[C@H](NC(=O)c1cccc(C(F)(F)F)c1)[C@@H]2c1ccc(F)cc1` [Compound I-479], the results for the IC50 in experiment [1], in experiment [2] (setting [3]) and in experiment [2] (setting [4]) were more than 1 µM, 1000 to 3000 nM and 1000 to 3000 nM, respectively.
